Assay [1] relates to isolated liver rough endoplasmic reticulum (RER). It is filed as biochemical, rat.
Assay [2] has the same test system. Type of assay: biochemical, rat. This is another data set of the same source.

The record followed here is article PMC2009656 (British Journal of Cancer, 1978).

Regarding `NN` [Hydrazine], in assay [1], the “Degranulation (%)” value is on record as 2 - 4%. The same measure, in the same setting: to `ClCOCCl` [Bis(Chloromethyl)ether] belongs 47. %.

For Aflatoxin B1, the “Degranulation (%)” value in assay [1] is recorded as 1-3%. On to EDTA, for which the “degranulation obtained from RNA/protein ratios” value in assay [2] was found to be 59.8%. Take `CCC1(c2ccccc2)C(=O)NC(=O)NC1=O` [Phenobarbital]: in assay [1], the “Degranulation (%)” value was 0-6%.
